These results are taken from ChEMBL document CHEMBL1139683, “Pyridone derivatives as potent, orally bioavailable VLA-4 integrin antagonists” (Bioorg Med Chem Lett, 2006).

The species named for data set [1] is Rattus norvegicus. Nature of the data set: Dose normalised AUC (0-8 hrs) in rat. It is filed as ADME, organism-based. The following applies: in vivo. Set-up: time < 8 hr.
In data set [2] the target is Integrin alpha-4/beta-1 (Homo sapiens, UniProt P05556+P13612). Nature of the data set: Inhibition of integrin alpha-4-beta-1 receptor expressed in Jurkat J6 cells by SPA. The class given is cell-based.
Integrin alpha-4/beta-1, sequence (P05556 whole entry): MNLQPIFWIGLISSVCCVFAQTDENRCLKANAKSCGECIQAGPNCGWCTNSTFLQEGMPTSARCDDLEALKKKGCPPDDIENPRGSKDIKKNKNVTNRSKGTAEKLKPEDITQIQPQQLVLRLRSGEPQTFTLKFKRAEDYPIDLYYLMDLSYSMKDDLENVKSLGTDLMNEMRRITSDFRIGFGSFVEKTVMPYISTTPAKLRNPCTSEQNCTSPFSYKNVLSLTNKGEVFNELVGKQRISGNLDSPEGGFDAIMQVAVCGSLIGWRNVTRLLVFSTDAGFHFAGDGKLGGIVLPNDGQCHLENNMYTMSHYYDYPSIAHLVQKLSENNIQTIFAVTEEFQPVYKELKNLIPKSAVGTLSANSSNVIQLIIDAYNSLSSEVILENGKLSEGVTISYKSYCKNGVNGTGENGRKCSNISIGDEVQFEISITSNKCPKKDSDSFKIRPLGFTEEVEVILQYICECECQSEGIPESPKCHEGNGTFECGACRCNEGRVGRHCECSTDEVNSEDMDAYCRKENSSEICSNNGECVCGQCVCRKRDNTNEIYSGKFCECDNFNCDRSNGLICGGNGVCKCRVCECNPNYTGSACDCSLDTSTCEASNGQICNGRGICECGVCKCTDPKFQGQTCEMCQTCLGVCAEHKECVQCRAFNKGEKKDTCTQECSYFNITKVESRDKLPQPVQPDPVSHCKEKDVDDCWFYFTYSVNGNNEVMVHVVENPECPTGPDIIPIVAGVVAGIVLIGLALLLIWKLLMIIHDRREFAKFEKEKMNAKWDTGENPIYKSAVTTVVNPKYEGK
Integrin alpha-4/beta-1, sequence (P13612 whole entry): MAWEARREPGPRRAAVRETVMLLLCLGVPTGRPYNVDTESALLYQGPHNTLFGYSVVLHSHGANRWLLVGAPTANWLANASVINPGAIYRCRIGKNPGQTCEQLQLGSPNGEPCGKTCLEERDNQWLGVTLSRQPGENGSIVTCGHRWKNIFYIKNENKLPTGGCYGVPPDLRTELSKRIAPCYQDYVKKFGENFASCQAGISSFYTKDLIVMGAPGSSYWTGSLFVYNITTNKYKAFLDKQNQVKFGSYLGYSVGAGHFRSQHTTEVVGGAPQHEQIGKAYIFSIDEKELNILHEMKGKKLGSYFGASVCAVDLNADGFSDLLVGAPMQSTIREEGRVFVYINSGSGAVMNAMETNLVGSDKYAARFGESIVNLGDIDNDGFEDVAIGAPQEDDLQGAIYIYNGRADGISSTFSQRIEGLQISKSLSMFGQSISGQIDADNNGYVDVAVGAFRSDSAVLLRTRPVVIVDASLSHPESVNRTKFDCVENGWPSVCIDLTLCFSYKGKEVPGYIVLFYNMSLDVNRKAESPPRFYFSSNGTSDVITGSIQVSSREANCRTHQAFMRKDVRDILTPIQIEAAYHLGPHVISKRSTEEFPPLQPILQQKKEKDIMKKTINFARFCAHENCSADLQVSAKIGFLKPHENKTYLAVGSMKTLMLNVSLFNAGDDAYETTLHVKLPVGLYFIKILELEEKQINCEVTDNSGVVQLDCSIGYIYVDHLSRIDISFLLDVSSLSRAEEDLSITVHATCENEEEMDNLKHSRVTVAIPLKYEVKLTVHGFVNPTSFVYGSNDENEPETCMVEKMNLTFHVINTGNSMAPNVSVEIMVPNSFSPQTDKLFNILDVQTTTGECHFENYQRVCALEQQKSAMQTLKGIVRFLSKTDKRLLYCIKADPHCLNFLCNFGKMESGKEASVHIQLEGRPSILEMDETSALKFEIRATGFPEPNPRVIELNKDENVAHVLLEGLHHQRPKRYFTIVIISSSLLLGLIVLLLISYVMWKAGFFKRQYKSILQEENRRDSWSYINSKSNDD
Data set [3] can be described thus: Bioavailability in Sprague-Dawley rat at 1 mg/kg, iv and 3 mg/kg, po. It is filed as ADME, organism-based. The conditions noted are these: in vivo.
Data set [4] in a line: Clearance in iv dosed rat. The class given is ADME, organism-based. The following applies: in vivo.
Data set [5] is described as follows: Half life in rat. The class given is ADME, organism-based. The conditions noted are these: in vivo.
Data set [6] is described as follows: Volume of distribution of steady state in rat. It is filed as ADME, organism-based. The following applies: in vivo, read-out: Vss.

Molecules are shown by their SMILES.

As for `COc1cc(-c2cccn(Cc3ccc(CCC(=O)O)cc3)c2=O)ccc1NC(=O)Nc1ccccc1C`, the AUC in data set [1] was determined as 6 kg·min/L.

For `Cc1ccccc1NC(=O)Nc1ccc(-c2cccn(Cc3ccc(CCC(=O)O)cc3)c2=O)cc1`, in data set [2], affinity was put at a Ki of 2.51 nM. In data set [1], this compound came in with an AUC of 3 kg·min/L.

For `COc1cc(-c2cccn(Cc3ccc(CCC(=O)O)cc3)c2=O)ccc1NC(=O)Nc1cc(C)ccc1C`, in data set [2], the Ki is 7.94 nM.

In data set [2], `COc1cc(-c2cccn(Cc3ccc([C@@H](C)CC(=O)O)cc3)c2=O)ccc1NC(=O)Nc1ccccc1C` gave an inhibition constant Ki of 1 nM.

`Cc1ccccc1NC(=O)Nc1ccc(-c2cccn(Cc3ccc([C@@H](C)CC(=O)O)cc3)c2=O)c(C)c1` gave a Ki in data set [2] of 2.51 nM.

In the case of `Cc1ccccc1NC(=O)Nc1ccc(-c2cccn(Cc3ccc([C@@H](C)CC(=O)O)cc3)c2=O)c(Cl)c1`, the affinity in data set [2], expressed as Ki, was 2 nM.

In turn, `Cc1ccccc1NC(=O)Nc1ccc(-c2cccn(Cc3ccc([C@H](C)CC(=O)O)cc3)c2=O)c(C)c1` had a Ki in data set [2] of 1 nM.

In data set [2], `Cc1ccccc1NC(=O)Nc1ccc(-c2cccn(Cc3ccc([C@H](C)CC(=O)O)cc3)c2=O)cc1` gave a Ki of 1 nM. In data set [1], the AUC was determined as 14 kg·min/L. Besides, in data set [3], the bioavailability was 22%. The compound also showed a clearance in data set [4] of 16 mL/min/kg. The same compound gave a half-life in data set [5] of 1.3 h. For the same compound, in data set [6], the Vd was 0.6 L/kg.

As to `COc1cc(-c2cccn(Cc3ccc(CCC(=O)O)cc3)c2=O)ccc1NC(=O)Nc1ccccc1Br`, the Ki in data set [2] was 5.01 nM.

For the compound `COc1cc(-c2cccn(Cc3ccc(CCC(=O)O)cc3)c2=O)ccc1NC(=O)Nc1ccc(C)cc1C`, the Ki in data set [2] was 25.1 nM.

Turning to `Cc1ccccc1NC(=O)Nc1ccc(-c2cccn(Cc3ccc([C@@H](C)CC(=O)O)cc3)c2=O)cc1C`, the Ki in data set [2] was 20 nM.

The compound `COc1cc(-c2cccn(Cc3ccc(CCC(=O)O)cc3)c2=O)ccc1NC(=O)Nc1c(C)cccc1C` had a Ki in data set [2] of 2 nM.

`Cc1ccccc1NC(=O)Nc1ccc(-c2cccn(Cc3ccc([C@H](C)CC(=O)O)cc3)c2=O)c(OC(F)(F)F)c1` showed a Ki in data set [2] of 3.98 nM.

Turning to `COc1cc(-c2cccn(Cc3ccc(CCC(=O)O)cc3)c2=O)ccc1NC(=O)Nc1ccccc1C(C)C`, in data set [2], the Ki was 316 nM.

Consider `Cc1ccccc1NC(=O)Nc1ccc(-c2cccn(Cc3ccc([C@@H](C)CC(=O)O)cc3)c2=O)c(OC(F)(F)F)c1`, for which affinity in data set [2] was put at a Ki of 20 nM.

`COc1cc(-c2cccn(Cc3ccc(CCC(=O)O)cc3)c2=O)ccc1NC(=O)Nc1ccccc1NC(C)=O` showed a Ki in data set [2] of 6.31 nM.

For `Cc1ccccc1NC(=O)Nc1ccc(-c2cccn(Cc3ccc([C@@H](C)CC(=O)O)cc3)c2=O)cc1Cl`, in data set [2], the Ki was 25.1 nM.

For `CCOc1cc(NC(=O)Nc2ccccc2C)ccc1-c1cccn(Cc2ccc([C@@H](C)CC(=O)O)cc2)c1=O`, in data set [2], the inhibition constant (Ki) was 5.01 nM.

`Cc1ccccc1NC(=O)Nc1ccc(-c2cccn(Cc3ccc([C@H](C)CC(=O)O)cc3)c2=O)c(Cl)c1` had a Ki in data set [2] of 1 nM.

Turning to `COc1ccccc1NC(=O)Nc1ccc(-c2cccn(Cc3ccc(CCC(=O)O)cc3)c2=O)cc1OC`, the affinity in data set [2], expressed as Ki, was 6.31 nM.

Take `COc1cc(-c2cccn(Cc3ccc(CCC(=O)O)cc3)c2=O)ccc1NC(=O)Nc1cccc(C)c1C`: in data set [2], the Ki was 25.1 nM.

The compound `Cc1ccccc1NC(=O)Nc1ccc(-c2cccn(Cc3ccc([C@@H](C)CC(=O)O)cc3)c2=O)cc1` had a Ki in data set [2] of 2.51 nM.

The compound `Cc1ccccc1NC(=O)Nc1ccc(-c2cccn(Cc3ccc([C@H](C)CC(=O)O)cc3)c2=O)cc1Cl` showed an inhibitory constant (Ki) in data set [2] of 0.794 nM.

The compound `CCOc1cc(NC(=O)Nc2ccccc2C)ccc1-c1cccn(Cc2ccc([C@H](C)CC(=O)O)cc2)c1=O` gave a Ki in data set [2] of 2 nM.

In the case of `CCc1cc(NC(=O)Nc2ccccc2C)ccc1-c1cccn(Cc2ccc([C@@H](C)CC(=O)O)cc2)c1=O`, the Ki in data set [2] was 50.1 nM.

In turn, `CCc1cc(NC(=O)Nc2ccccc2C)ccc1-c1cccn(Cc2ccc([C@H](C)CC(=O)O)cc2)c1=O` gave a Ki in data set [2] of 6.31 nM.

Regarding `Cc1ccccc1NC(=O)Nc1ccc(-c2cccn(Cc3ccc([C@H](C)CC(=O)O)cc3)c2=O)cc1C`, in data set [2], the Ki is 2.51 nM.

As to `COc1cc(-c2cccn(Cc3ccc(CCC(=O)O)cc3)c2=O)ccc1NC(=O)Nc1ccccc1`, the affinity in data set [2], expressed as Ki, was 1.58 nM.

In data set [2], `COc1cc(-c2cccn(Cc3ccc([C@H](C)CC(=O)O)cc3)c2=O)ccc1NC(=O)Nc1ccccc1C` showed a Ki of 0.794 nM. Besides, the AUC in data set [1] turned out to be 154 kg·min/L. In addition, in data set [3], the bioavailability is 121%. Moreover, the clearance in data set [4] turned out to be 9 mL/min/kg. In data set [5], this compound had a half-life of 1.4 h. In data set [6], the Vd came out at 0.6 L/kg.
